Series [1] concerns rat stomach. Particulars: i.v., as maleate; cited from earlier work.
In series [2] the target is T1, histamine H2 receptors (Rattus norvegicus, UniProt P25102).
T1 construct: from tissue; host or cells: stomach of the atropinized rat, in vivo (endogenous receptor)
In words: antisecretory activity: antagonism of the gastric acid hypersecretion induced by histamine in the atropinized rat (Ghosh and Schild, modified according to Black et al.). To be noted: for ED50: read-out: DI50 (ID50: dose which inhibits by 50% the gastric hypersecretion induced by histamine). In kind it is in vivo. How it is done: According to this test, a gastric acid hypersecretion is induced by intravenous infusion of a sub-maximal dose of histamine equivalent to 15 mcmol/kg/hour and the gastric secretion is measured by perfusion of a physiological solution at a constant speed in the stomach of the animal.
Such a ID50 represents the index of the gastric H2 -blocking action.

A short description of series [3]: acute toxicity by intraperitoneal route in the mouse. Particulars: in vivo, ip. In kind it is in vivo. An excerpt:
(§1) With respect of their degree of activity, the compounds of the present invention are poorly toxic.

Series [4] has as its system mouse. Described as above. Type of series: in vivo. Particulars: 375 mg/kg.
From the text: as §1

The mark [5] stands for this setting: atropinized rat, intravenous route, single administration, histamine i.v. infusion 15 mcmol/kg/hour.

Where a name gives a salt, the structure may show the parent alone. Read-outs that look alike come from different tables or passages of the source.

T1 sequence (P25102 whole entry): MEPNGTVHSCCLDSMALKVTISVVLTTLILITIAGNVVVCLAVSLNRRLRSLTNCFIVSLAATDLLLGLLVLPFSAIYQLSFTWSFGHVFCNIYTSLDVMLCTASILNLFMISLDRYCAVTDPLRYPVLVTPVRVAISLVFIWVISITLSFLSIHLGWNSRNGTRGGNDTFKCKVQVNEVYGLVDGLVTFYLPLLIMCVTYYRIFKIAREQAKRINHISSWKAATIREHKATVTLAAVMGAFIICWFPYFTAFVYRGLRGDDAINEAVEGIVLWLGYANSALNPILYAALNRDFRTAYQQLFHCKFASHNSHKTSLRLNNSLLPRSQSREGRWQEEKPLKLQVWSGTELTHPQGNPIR

On to `N=C(N)Nc1nc(CSCCNC=O)cs1` [2-guanidino-4-[(2-formamido)ethylthiomethyl]thiazol], for which, in series [1], the ED50 was 0.25 mg/kg.
In the case of `CS(=O)(=O)Nc1ccc(C(=O)NCCSCc2csc(NC(=N)N)n2)cc1` [Compound A, 4-methanesulfonamido-N-[2-(2-guanidinothiazol-4-ylmethylthio)ethyl]benzamide, reference compound], the ED50 in series [2] (setting [5]) turned out to be 1.66 µmol/kg. Further, in series [2] (atropinized rat, i.v.), the “Relative potency (cimetidine = 1)” value is 0.57.
In series [3], `N=C(N)Nc1nc(CSCCNC(=O)c2cccnc2)cs1` [Compound B, N-[2-(2-guanidinothiazol-4-ylmethylthio)ethyl]nicotinamide, reference compound] displayed an LD50 of 342 µmol/kg. The ED50 in series [2] (setting [5]) was 0.28 µmol/kg. In addition, in series [2] (atropinized rat, i.v.), the “Relative potency (cimetidine = 1)” value amounted to 7.39.
With `CNC(=C[N+](=O)[O-])NCCSCc1ccc(CN(C)C)o1` [Ranitidine, N-[2-[[5-[(dimethylamino)methyl]furfuryl]thio]ethyl]-N'-methyl-2-nitro-1,1-ethenediamine, reference compound], the “Relative potency (cimetidine = 1)” value in series [2] (atropinized rat, i.v.) is given as 3.80.
As for `CS(=O)(=O)Nc1cccc(C(=O)NCCSCc2csc(NC(=N)N)n2)c1.Cl` [SR 57938 A, 3-methanesulfonamido-N-[2-(2-guanidinothiazol-4-ylmethylthio)ethyl]benzamide hydrochloride], in series [2] (atropinized rat, i.v.), the “Relative potency (cimetidine = 1)” value is 6.33. The “activity compared with reference compounds” value in series [2] (comparison in words, from Table I, atropinized rat, i.v.) was “ten times more active than "Compound A"”. Besides, the ED50 in series [2] (rat, iv) came out at 0.15 µmol/kg.
Take `N=C(N)Nc1nc(CSCCNC(=O)c2ccc[n+]([O-])c2)cs1` [SR 57957 A, neutral fumarate of N-[2-(2-guanidinothiazol-4-ylmethylthio)ethyl]-3-pyridine carboxamide 1-oxide]: the mortality entry in series [4] is listed as “does not cause any mortality”. The same molecule showed an LD50 in series [3] greater than 900 µmol/kg. Moreover, in series [2] (setting [5]), the ED50 was 0.1 µmol/kg. Besides, in series [2] (atropinized rat, i.v.), the “Relative potency (cimetidine = 1)” value is on record as 9.5.
Regarding `N=C(N)Nc1nc(CSCCNC(=O)c2cccc(NS(=O)(=O)c3ccccc3)c2)cs1` [SR 57963 A, neutral fumarate of 3-benzenesulfonamido-N-[2-(2-guanidinothiazol-4-ylmethylthio)ethyl]benzamide], the ED50 in series [2] (setting [5]) was 0.065 µmol/kg. Further, the “Relative potency (cimetidine = 1)” value in series [2] (atropinized rat, i.v.) is 14.6.

Broadly, the LD50 is the dose expected to kill half of the subjects tested. A low value points to a more toxic substance.

These data come from patent publication US4501747A, “Certain amide derivatives of 2-guanidino-thiazoles and compositions containing same” (Sanofi, priority 1982, dated 1985).
